Reference: patent US9056136B2, “Weakly basic 2-nitroimidazoles for the non-invasive detection of tissue hypoxia” (Natural Pharmacia International, Inc., priority 2006, dated 2015)
Like-named read-outs stand apart in the source and are kept apart here.

Columns and labels:
V79 cells = conditions: cited from earlier work
[1] = tested on: Chinese hamster V79-4 lung fibroblasts; test: pH-dependent binding to anoxic V79-4 cells, ELISA of cell lysates; type: cell-based; conditions: for binding (ng/g protein ± SE): anoxic V79 cells, 200 uM, 3 hours, 5% CO2+95% nitrogen
Text: Weakly basic 2-nitroimidazole hypoxia compounds of the invention are more sensitive detectors of hypoxia in cells at high pH than are 2-nitroimidazoles that lack a weakly basic moiety, such as CCI-103F. pH-dependent binding for weakly basic pimonidazole was compared to that for CCI-103F in Chinese hamster V79-4 lung fibroblasts under conditions of short-term anoxia. The pH range used (6.4 to 7.4) encompasses about 90% of extracellular pHs measured in human tumors. Eagle's minimum essential medium (MEM) containing 4.5 g/L glucose, but no carbonate, was warmed to 37° C. in a warm room and adjusted to pH 6.4, 6.8 and 7.4 by the addition of sodium bicarbonate under a stream of 5% CO2+95% nitrogen. Fetal bovine serum (FBS) was added to produce an Eagle's pH adjusted MEM containing 10% FBS. Attached V79-4 cells were harvested with EDTA-trypsin and diluted in 25 mL of the pH adjusted MEM at a concentration of 3×10^5 cells/mL. To this solution was added an amount of a stock solution of pimonidazole HCl or CCI-103F to produce a final concentration of 200 uM. The cell solution was then incubated under an atmosphere of 5% CO2+95% nitrogen with agitation for 3 hours. Cell lysates were analyzed by ELISA and the data normalized to protein content. The experiments for both markers were performed in triplicate.

[2] = humans; cited from earlier work
[3] = cited from earlier work
central nervous system = conditions: clinical use, 0.5 g/m2; 750-1000 mg/patient; 50% of the maximally tolerated single dose; cited from earlier work
[4] = tested on: spontaneous canine tumors; test: immunostaining of hypoxia marker adducts in biopsies of spontaneous canine tumors; type: in vivo, dogs
Text: Weakly basic 2-nitroimidazole hypoxia compounds of the invention are more efficient at detecting fluctuating hypoxia than are compounds that lack a weakly basic moiety when measured in large spontaneous canine tumors analogous to those occurring in humans. The hydrochloride salt of the weakly basic hypoxia marker, pimonidazole, was given to 12 dogs at a dosage of 0.5 gm/m^2 body surface area. Seven hours later, all 12 dogs received CCI-103F, a marker that lacks a weakly basic moiety. Two to four, widely separated biopsy samples were taken from viable regions in each tumor and immediately placed in cold 10% neutral buffered formalin. The specimens were fixed for 18-24 hours at 4° C. and then transferred into cold 70% ethanol and stored at 4° C. until mounted into paraffin blocks. Sections from formalin-fixed paraffin-embedded biopsy samples were immunostained for pimonidazole and CCI-103F binding using primary rabbit polyclonal antisera to pimonidazole and CCI-103F adducts respectively. Immunostained sections were exhaustively scanned at 400× by means of an Axioskop 50 microscope and Fluar objective and the percent immunostaining for pimonidazole and CCI-103F adducts was measured.

SMILES	Ci/Ce in V79 cells (V79 cells; pH 6.4)	Ci/Ce in V79 cells (V79 cells; pH 6.8)	Ci/Ce in V79 cells (V79 cells; pH 7.4)	binding (ng/g protein ± SE) ([1]; pH 6.4) [ng/g protein]	binding (ng/g protein ± SE) ([1]; pH 6.8) [ng/g protein]	binding (ng/g protein ± SE) ([1]; pH 7.4) [ng/g protein]	plasma half-life (t1/2) [2] [h]	pKa [3]	intensity of binding compared with CCI-103F ([1]; pH 6.4 to 7.4, anoxic V79-4 cells)	central nervous system (CNS) effects (central nervous system)	extent of immunostaining relative to CCI-103F, factor on average ([4]; 12 dogs, pimonidazole HCl 0.5 gm/m^2, CCI-103F seven hours later, paired t test)	extent of binding relative to CCI-103F within a single tumor ([4]; regions of one canine tumor, FIGS. 1A-1D)
O=[N+]([O-])c1nccn1CC(O)COC(C(F)(F)F)C(F)(F)F (centres unmarked) [CCI-103F]	~1.0	~1.0	~1.0	90 ± 7	118 ± 17	125 ± 5						
O=C(Cn1ccnc1[N+](=O)[O-])NCC(F)(F)C(F)(F)F [EF5, 2-(2-nitro-1H-imidazol-1-yl)-N-(2,2,3,3-pentafluoropropyl)-acetamide]							11.7 ± 2.7					
COCC(O)Cn1ccnc1[N+](=O)[O-] (centres unmarked) [misonidazole]							9.3					
O=[N+]([O-])c1nccn1CC(O)CN1CCCCC1 (centres unmarked) [pimonidazole, 1-(2-hydroxy-3-piperidinopropyl)-2-nitroimidazole]	1.0	1.6	3.3	144 ± 15	293 ± 19	363 ± 22	5.1 ± 0.8	8.7	greater than that for CCI-103F at all pH levels tested	extremely low frequency of even the mildest of central nervous system (CNS) effects	1.25	greatly exceeded it in other regions
